Measurements as given in ChEMBL document CHEMBL4433254 (Bioorg Med Chem Lett, 2019).
pIC50: −log10 of the molar value. In brackets after ≈: the same amount, converted by molar mass.

Assays:
[1] = species on record: Homo sapiens; assay: Selectivity index, ratio of IC50 for CYP11B1 (unknown origin) to ratio of IC50 for CYP11B2 (unknown origin)
[2] = molecular target: T1, CYP11B1 (Homo sapiens, UniProt P15538); assay: Inhibition of CYP11B1 (unknown origin)
T1 sequence (P15538 whole entry): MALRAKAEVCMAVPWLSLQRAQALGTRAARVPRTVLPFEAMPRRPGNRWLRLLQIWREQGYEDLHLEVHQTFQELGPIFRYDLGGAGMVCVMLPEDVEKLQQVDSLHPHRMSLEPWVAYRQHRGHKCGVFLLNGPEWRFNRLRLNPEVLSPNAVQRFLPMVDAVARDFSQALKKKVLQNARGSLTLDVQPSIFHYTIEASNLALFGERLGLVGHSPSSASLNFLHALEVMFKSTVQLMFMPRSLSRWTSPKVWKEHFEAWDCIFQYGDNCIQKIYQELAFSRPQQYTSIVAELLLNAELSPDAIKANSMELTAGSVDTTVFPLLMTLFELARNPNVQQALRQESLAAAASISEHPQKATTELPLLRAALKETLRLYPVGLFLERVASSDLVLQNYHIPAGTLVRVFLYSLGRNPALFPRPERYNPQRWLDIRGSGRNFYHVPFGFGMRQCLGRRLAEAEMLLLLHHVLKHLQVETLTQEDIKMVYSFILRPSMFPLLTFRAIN

[3] = species on record: Homo sapiens; assay: Selectivity index, ratio of IC50 for human CYP11B1 expressed in hamster fibroblasts to ratio of IC50 human CYP11B2 expressed in hamster fibroblasts
[4] = molecular target: T2, Cytochrome P450 11B2, mitochondrial (Homo sapiens, UniProt P19099); assay: Inhibition of human CYP11B2 expressed in hamster fibroblasts using deoxycorticosterone as substrate
T2 sequence (P19099 whole entry): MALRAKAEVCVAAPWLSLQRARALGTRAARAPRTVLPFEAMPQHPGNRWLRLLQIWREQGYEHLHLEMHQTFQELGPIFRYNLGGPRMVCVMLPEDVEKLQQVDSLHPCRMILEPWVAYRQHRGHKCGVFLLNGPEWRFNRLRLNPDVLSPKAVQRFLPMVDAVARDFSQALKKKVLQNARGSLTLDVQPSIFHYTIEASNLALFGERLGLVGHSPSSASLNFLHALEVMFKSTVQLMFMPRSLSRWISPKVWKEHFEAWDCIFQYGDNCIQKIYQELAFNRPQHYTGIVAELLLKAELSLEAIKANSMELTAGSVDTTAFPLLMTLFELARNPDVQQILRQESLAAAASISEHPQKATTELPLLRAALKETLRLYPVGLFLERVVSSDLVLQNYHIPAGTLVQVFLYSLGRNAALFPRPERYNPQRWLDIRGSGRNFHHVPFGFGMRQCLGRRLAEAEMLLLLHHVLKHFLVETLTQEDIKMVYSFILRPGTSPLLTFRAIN

[5] = molecular target: T3, Cytochrome P450 11B1, mitochondrial (Homo sapiens, UniProt P15538); assay: Inhibition of human CYP11B1 expressed in hamster fibroblasts using deoxycorticosterone as substrate
T3 sequence (P15538 whole entry): T1 sequence (P15538 whole entry)

[6] = system: Candida albicans; assay: Antifungal activity against Candida albicans; type: functional
[7] = Lipophilicity, log D of compound at pH 7.4; conditions: buffer
[8] = Partition coefficient, log P of the compound; conditions: octanol/water

Cc1nnc2n1-c1c(F)cc(-c3cccnc3)cc1CC2
Ratio IC50 [1]: 272
pIC50 [2]: 4.77

Cc1nnc2n1-c1cc(F)c(-c3cccnc3)cc1CC2
Ratio IC50 [1]: 96
pIC50 [2]: 4.90

Fc1cc(-c2cccnc2)cc2c1-n1cnnc1CC2
Ratio IC50 [1]: 94
pIC50 [2]: 4.79

CCC(=O)N1CCc2cc(-c3cccnc3)ccc21
Ratio IC50 [3]: 21
pIC50 [4]: 6.64
pIC50 [5]: 5.32

Clc1ccc(COC(Cn2ccnc2)c2ccc(Cl)cc2Cl)c(Cl)c1 (stereo not given) [MICONAZOLE]
MIC90 [6]: 0.5 mg/L (≈ 1.2 µM)

Clc1ccc(COC(Cn2ccnc2)c2ccc(Cl)cc2Cl)cc1 (stereo not given) [ECONAZOLE]
logD [7]: 5.25
logP [8]: 5.25
MIC90 [6]: 2 mg/L (≈ 5.24 µM)

CC(=O)N1CCN(c2ccc(OCC3COC(Cn4ccnc4)(c4ccc(Cl)cc4Cl)O3)cc2)CC1 (stereo not given) [KETOCONAZOLE]
MIC90 [6]: 0.25 mg/L (≈ 0.47 µM)

OC(Cn1cncn1)(Cn1cncn1)c1ccc(F)cc1F [FLUCONAZOLE]
MIC90 [6]: 1 mg/L (≈ 3.27 µM)

Fc1cc2c(cc1-c1cccnc1)CCc1nncn1-2
Ratio IC50 [1]: 32
pIC50 [2]: 5.10

Clc1ccccc1C(c1ccccc1)(c1ccccc1)n1ccnc1 [CLOTRIMAZOLE]
logD [7]: 5.05
logP [8]: 5.05
MIC90 [6]: 1 mg/L (≈ 2.9 µM)
